Source: the supplement of paper PMC10307832

Columns and labels:
Assay in all cases: relative viability (nuclei count vs DMSO), 5 days (fraction); higher = more cells survive
IU1-47 + Palbociclib = compound: CC1=CC(=C(N1C2=CC=C(C=C2)Cl)C)C(=O)CN3CCCCC3 [IU1-47] + CC(=O)c1c(C)c2cnc(Nc3ccc(N4CCNCC4)cn3)nc2n(C2CCCC2)c1=O [Palbociclib] (partner 0.5 µM)
Procedure, shortened: (§1)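 Lung cancer cell lines in 1536-well plates were dosed by pin tool the day after seeding, either with one drug alone or with a fixed anchor-drug dose plus five library-drug doses (not always all listed) in √10 steps. After 5 days, cells were fixed and their nuclei stained in one step (final 0.05% Triton X-100, 1% formaldehyde, 1 ug/ml Hoechst), then counted on 4× images. Relative viability is the nuclei count in treated wells divided by that in vehicle wells. Values are medians of duplicate plates.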

FG-4592 + Crizotinib = compound: Cc1nc(C(=O)NCC(=O)O)c(O)c2ccc(Oc3ccccc3)cc12 [FG-4592] + C[C@@H](Oc1cc(-c2cnn(C3CCNCC3)c2)cnc1N)c1c(Cl)ccc(F)c1Cl [Crizotinib] (partner 1 µM)
Procedure, shortened: as §1

IU1-47 + Navitoclax = compound: CC1=CC(=C(N1C2=CC=C(C=C2)Cl)C)C(=O)CN3CCCCC3 [IU1-47] + CC1(C)CCC(c2ccc(Cl)cc2)=C(CN2CCN(c3ccc(C(=O)NS(=O)(=O)c4ccc(N[C@H](CCN5CCOCC5)CSc5ccccc5)c(S(=O)(=O)C(F)(F)F)c4)cc3)CC2)C1 [Navitoclax] (partner 0.5 µM)
Procedure, shortened: as §1

FG-4592 + Linsitinib = compound: Cc1nc(C(=O)NCC(=O)O)c(O)c2ccc(Oc3ccccc3)cc12 [FG-4592] + C[C@]1(O)C[C@@H](c2nc(-c3ccc4ccc(-c5ccccc5)nc4c3)c3c(N)nccn32)C1 [Linsitinib] (partner 1 µM)
Procedure, shortened: as §1

| Cell Line | relative viability (IU1-47 + Palbociclib; first compound 0.08 µM) | relative viability (IU1-47 + Palbociclib; first compound 0.253 µM) | relative viability (IU1-47 + Palbociclib; first compound 0.8 µM) | relative viability (IU1-47 + Palbociclib; first compound 2.53 µM) | relative viability (IU1-47 + Palbociclib; first compound 8 µM) | relative viability (FG-4592 + Crizotinib; first compound 0.08 µM) | relative viability (FG-4592 + Crizotinib; first compound 0.253 µM) | relative viability (FG-4592 + Crizotinib; first compound 0.8 µM) | relative viability (FG-4592 + Crizotinib; first compound 2.53 µM) | relative viability (FG-4592 + Crizotinib; first compound 8 µM) | relative viability (IU1-47 + Navitoclax; first compound 0.08 µM) | relative viability (IU1-47 + Navitoclax; first compound 0.253 µM) | relative viability (IU1-47 + Navitoclax; first compound 0.8 µM) | relative viability (IU1-47 + Navitoclax; first compound 2.53 µM) | relative viability (IU1-47 + Navitoclax; first compound 8 µM) | relative viability (FG-4592 + Linsitinib; first compound 0.08 µM) | relative viability (FG-4592 + Linsitinib; first compound 0.253 µM) | relative viability (FG-4592 + Linsitinib; first compound 0.8 µM) | relative viability (FG-4592 + Linsitinib; first compound 2.53 µM) | relative viability (FG-4592 + Linsitinib; first compound 8 µM) |
| --- | --- | --- | --- | --- | --- | --- | --- | --- | --- | --- | --- | --- | --- | --- | --- | --- | --- | --- | --- | --- |
| HCC-78 | 0.474 | 0.441 | 0.5 | 0.507 | 0.457 | 0.312 | 0.332 | 0.269 | 0.31 | 0.337 | 0.906 | 0.866 | 0.819 | 0.578 | 0.747 | 0.599 | 0.476 | 0.374 | 0.494 | 0.506 |
| HCC-366 | 0.409 | 0.421 | 0.349 | 0.546 | 0.327 | 0.469 | 0.471 | 0.565 | 0.628 | 0.325 | 1.07 | 1.09 | 0.935 | – | 1.46 | 0.443 | 0.571 | 0.551 | 0.693 | 0.517 |
| HCC-827 | 0.553 | 0.497 | 0.534 | 0.551 | 0.535 | 0.92 | 0.892 | 0.923 | 1.02 | 0.869 | 1.06 | 1.08 | 1.01 | 1.02 | 0.995 | 1.02 | 0.895 | 0.984 | 0.975 | 0.945 |
| HOP-62 | 0.515 | 0.524 | 0.483 | 0.499 | 0.452 | 0.981 | 0.89 | 1.01 | 0.922 | 0.654 | 1.05 | 0.962 | 1.12 | 0.897 | 1.21 | 0.947 | 1.03 | 0.921 | 1.03 | 0.931 |
| IA-LM | – | – | – | – | – | 0.766 | 0.824 | 0.805 | 0.644 | 0.76 | 0.758 | 1.08 | 0.739 | 1.05 | 0.81 | 0.578 | 0.597 | 0.565 | 0.376 | 0.476 |
| LC-2-ad | 0.498 | 0.509 | 0.484 | – | 0.488 | 0.433 | 0.412 | 0.48 | 0.508 | 0.486 | 0.429 | 0.548 | 0.524 | 0.443 | 0.382 | 0.81 | 0.757 | 0.878 | 0.816 | 0.911 |
| LCLC-97TM1 | 0.281 | 0.229 | 0.218 | – | 0.297 | 0.347 | 0.342 | 0.372 | – | 0.435 | 0.526 | 0.502 | 0.517 | – | 0.404 | 0.179 | 0.191 | 0.17 | – | 0.183 |
| LCLC-103H | 0.551 | 0.531 | 0.506 | 0.478 | 0.469 | 0.884 | 0.977 | 1.01 | 0.994 | 1.05 | – | – | – | – | – | 0.969 | 1.1 | 0.89 | 1.1 | 0.854 |
| NCI-H358 | 0.131 | 0.165 | 0.149 | 0.112 | 0.141 | 0.531 | 0.602 | 0.703 | 0.704 | 0.594 | – | – | – | – | – | 0.723 | 0.679 | 0.73 | 0.681 | 0.605 |
| NCI-H522 | 0.987 | 0.988 | 1.36 | 0.845 | 0.956 | – | – | – | – | – | – | – | – | – | – | – | – | – | – | – |
| NCI-H596 | – | – | – | – | – | 1.02 | 0.898 | – | 0.806 | 0.778 | 1.05 | 0.961 | 0.982 | 0.869 | 1.05 | 1.28 | 1.01 | – | 1.04 | 0.983 |
| NCI-H650 | 0.361 | 0.332 | 0.312 | 0.373 | 0.288 | 0.598 | 0.648 | 0.756 | 0.654 | 0.61 | – | – | – | – | – | 0.884 | 0.704 | 0.669 | 0.724 | 0.631 |
| NCI-H661 | 0.433 | 0.425 | 0.44 | 0.415 | 0.443 | – | – | 1.29 | 1.04 | 1.1 | – | – | – | – | – | 0.475 | 0.588 | 0.55 | 0.678 | 0.446 |
| NCI-H1299 | – | – | – | – | – | 0.953 | 0.903 | 0.976 | 0.93 | 0.989 | 1.11 | 1.13 | 1.05 | 1.05 | 1.03 | 0.979 | 0.939 | 0.956 | 0.989 | 0.964 |
| NCI-H1395 | 0.58 | 0.569 | 0.631 | 0.655 | 0.567 | – | – | – | – | – | 1.03 | 1.07 | 1.14 | – | 1.15 | 1.06 | 0.949 | – | 1.05 | 0.824 |
| NCI-H1563 | – | – | – | – | – | 0.893 | 0.888 | 0.91 | 0.889 | 0.804 | – | – | – | – | – | 1.27 | 1.24 | 1.19 | 1.27 | 1.22 |
| NCI-H1648 | 0.285 | 0.289 | 0.282 | 0.249 | 0.265 | – | – | – | – | – | – | – | – | – | – | – | – | – | – | – |
| NCI-H1650 | 0.322 | 0.313 | 0.27 | 0.317 | 0.287 | 1.14 | 0.826 | 1.21 | 1.05 | 1.02 | 1.08 | 1.35 | 1.08 | 1.36 | 0.918 | – | – | – | – | – |
| NCI-H1703 | – | – | – | – | – | 0.591 | 0.572 | 0.702 | 0.44 | 0.733 | 1.06 | 0.961 | 0.953 | 1.44 | 1.15 | 0.837 | 0.55 | 0.679 | 0.755 | 0.617 |
| NCI-H1793 | 0.306 | – | 0.317 | 0.359 | 0.276 | – | – | – | – | – | 0.412 | 0.358 | 0.445 | – | 0.424 | 0.732 | 0.78 | – | 1.01 | 0.856 |
| NCI-H2170 | 0.461 | 0.463 | 0.455 | 0.411 | 0.382 | 1.16 | 1.14 | 1.24 | 1.22 | 0.909 | 0.74 | 0.734 | 0.684 | 0.525 | 0.577 | – | – | – | – | – |
| NCI-H2342 | 0.564 | 0.569 | 0.487 | 0.527 | 0.519 | – | – | – | – | – | – | – | – | – | – | – | – | – | – | – |
| SW 900 | 0.53 | – | 0.564 | 0.621 | 0.513 | – | – | – | – | – | – | – | – | – | – | – | – | – | – | – |
